# Measured values taken from EP4007494B1, “METHOD OF IMPROVING COLD STRESS TOLERANCE AND CROP SAFETY” (Bayer CropScience LLC, priority 2019, dated 2021).
# Like-named read-outs stand apart in the source and are kept apart here.
# System: canola
# Conditions: for Average Relative Yield: relative to PROSPER EVERGOL
smiles,measurement,setting,value
"O=C1C=C(N(Cc2ccc(Cl)nc2)CC(F)F)CO1 [Flupyradifurone, flupyradifurone]",Average Relative Yield,"Flupyradifurone 5 g per kg seed, alone or + QST713 1 × 10^6 CFU per seed",102.0%
same,Average Relative Yield,Flupyradifurone 10 g per kg seed,100.5%
same,Average Relative Stand Density,in vivo,83.2%
same,Average Vigor Rating,in vivo,4.2
same,Relative Delay in Emergence,in vivo,3.5 days
same,average relative stand density,in vivo,decreased
same,delay in emergence,in vivo,significant delay in emergence
